Results taken from patent publication US20060263830A1, “Interfacial biomaterials” (priority 2001, published 2006).
Blank lines part the entries; values can stand above or below the substance they belong to.

Columns and labels:
[1] = AFM pull-off force measurements on polystyrene; format: binding; conditions: peptide on gold-coated AFM cantilever, PBS buffer, 300 nm/sec
Description: The adhesion strength and mode of binding are both IFBM and substrate dependent. To characterize and quantify the adhesion forces between IFBMs and synthetic and biological substrates, a state-of-the-art force spectrometer that employs a high precision, piezo driven flexure stage equipped with a capacitive displacement sensor with a position resolution of about 0.5 nm was used. A polystyrene binding peptide from the X6YX6 peptide library was used (a cysteine-terminated peptide containing the polystyrene-binding domain in the forward direction; CGSSLVGLHSYWSSPFF; SEQ ID NO:117). The cysteine-terminated peptides were then linked to a gold-coated atomic force microscope (AFM) cantilever by incubating the cantilever in a solution of the peptide (1 mg/ml). Pull-off force measurements were carried out in PBS buffer solution on a MultiMode AFM (Digital Instruments, now Veeco Instruments, Inc., Woodbury, N.Y., United States of America) by repeatedly engaging a polystyrene surface with the modified cantilever tip at a speed of 300 nm/sec. The mean adhesion force for the peptide was approximately 300 pN.

[2] = tested on: adult human dermal fibroblasts (NHDFs); test: NHDF adhesion to IFBM-coated polystyrene; format: cell-based
Method: (§1) First, a 1.0 mg/ml solution of FFPYSHLGVLSSG-PEG (SEQ ID NO:104) was prepared in water. The solution was added to the wells of a 96 well polystyrene culture plate and incubated at 50° C. overnight. The wells were then washed twice with PBS before seeding with 300 μl of either cell type. Human fibroblast and endothelial cells were also seeded on untreated polystyrene (N=3) and peptide (non-pegylated) coated polystyrene (N=3). After overnight incubation at 37° C., the wells were washed 5 times in excess PBS, then fixed in ethanol and stained with eosin Y for cell counting and optical microscopy. Both NHDF and HUVEC cells lose their rounded morphology, spread, and adhere to the untreated control plastic. At higher magnification, marked membrane ruffling is evident.

[3] = tested on: human umbilical vein endothelial cells (HUVECs); test: HUVEC adhesion to IFBM-coated polystyrene; format: cell-based
Method: as §1

[4] = tested on: human umbilical vein endothelial cells (HUVECs); test: HUVEC adhesion and spreading on binding-agent-coated polystyrene wells; format: cell-based; conditions: 25 mg/mL coating; light microscopy after 1-hour, 2-hour or overnight culture; vs polystyrene-binding peptide lacking cell-binding domain or uncoated
Method: A 25 mg/mL solution was prepared using a binding agent comprising the peptide sequence RGDFLSFVFPASAWGG (SEQ ID NO:72) in a mixture of 90 parts PBS pH 7.4 and 10 parts DMSO. Fifty (50) μl of the binding agent solution was to each of three wells of a 96-well polystyrene microtiter plate for a duration of 1 hour. In another 3 wells, 50 μl of a control peptide 25 mg/ml fluorescein-labeled FLSFVFPASAWGG (SEQ ID NO:1) was added. The wells were washed three times with PBS and non-specific protein binding sites were blocked with sterile-filtered BSA (3% in PBS) for 30 minutes with shaking at 25 rpm. […] Following 4 washes with PBS, human umbilical vein endothelial cells (HUVECs) in supplemented EBM media were seeded onto each well. Cell adhesion and spreading was monitored by light microscopy following a 1-hour, 2-hour, or overnight culture.

Human chondrocytes = test: Cell panning of phage library on chondrocytes; format: cell-based; conditions: phage-displayed peptide
Description: The SCX16S library (described in Example 1) was screened for binding to chondrocytes. The peptides of the library were of the format SCX16S, including 16 central random amino acids, terminal fixed serines and a single cysteine residue.
Human chondrocytes were obtained from Clonetics, Inc. (San Diego, Calif., United States of America) and grown to confluency on one well of a polystyrene 6-well plate in supplemented F-12 media (Sigma-Aldrich Corp., St. Louis, Mo., United States of America). The entire cell panning procedure was free of detergent. The library was pre-cleared of phage that specifically or non-specifically bind polystyrene by incubating phage in polystyrene wells for two hours prior to addition to the cellular target. In each round, nonspecific binding sites were blocked using 5% dry milk in PBS. Phage were detected, isolated, amplified, and sequenced as described in Example 2. A representative peptide has the sequence SCSVYDHKIGRDSFYSGCS (SEQ ID NO:101). A representative peptide also has a preference for chondrocytes greater than 10 fold over endothelial cells.

[5] = Phage panning and ELISA for binding to polyurethane; conditions: phage-displayed peptide, SCX16S library
Method: To detect phage that specifically bound to titanium, conventional ELISAs were performed using an anti-M13 phage antibody conjugated to HRP, followed by the addition of chromogenic agent o-phenylenediamine in 10% hydrogen peroxide. Relative binding strengths of the phage were determined by absorbance measurements at 490 nm using a microtiter plate reader.
The SCX16S library (described in Example 1) was screened for binding to polyurethane. Phage were detected, isolated, amplified, and sequenced as described in Example 2.

[6] = 1.0 mg/ml coating, overnight incubation at 37° C.
[7] = coated vs untreated polystyrene

Substance: CGSSLVGLHSYWSSPFF (Polystyrene-binding peptide 117) [SEQ ID NO:117]
mean adhesion force [1]: approximately 300 pN

Substance: FFPYSHLGVLSSG-PEG (PEG conjugated; Polystyrene-binding peptide 104) [SEQ ID NO:104, multi-functional peptide or interfacial biomaterial (IFBM) with PEG cell-repelling segment]
cell morphology and attachment on treated polystyrene [2, 6]: maintain a round morphology and are not tightly adhered to the surface
cell adhesion (cell counting) [2, 7]: substantially lessened
cell number (cell counting) [2, 7]: dramatically reduced
cell morphology and attachment on treated polystyrene [3, 6]: maintain a round morphology and are not tightly adhered to the surface
cell adhesion (cell counting) [3, 7]: substantially lessened
cell number (cell counting) [3, 7]: dramatically reduced

Substance: FLSFVFPASAWGGSSGRGD [SEQ ID NO:72]
cell adhesion and spreading [4]: increased cell adhesion and cell spreading

Substance: SCSVYDHKIGRDSFYSGCS (Chondrocyte-binding peptide 101) [SEQ ID NO:101]
preference for chondrocytes over endothelial cells (Human chondrocytes): greater than 10 fold

specific binding to polyurethane [5]: specifically binds
Substance: SCYVNGHNSVWVVVFWGVS (Polyurethane-binding peptide 1) [SEQ ID NO:23]
